Experimental findings from patent US6376505B1, “5-HT1A and 5-HT1Dαdalpha antagonists” (Eli Lilly and Company, priority 1997, dated 2002) are described below.

Where a name gives a salt, the structure may show the parent alone.

In turn, `CSc1ccccc1OC[C@@H](O)CN1CCC2(CC1)OCc1c2ccc2c1OCCO2` (as salt: oxalate) returned a melting point of 180 °C.

The compound `O[C@H](COc1ccccc1C1CCCC1)CN1CCC2(CC1)OCc1c2ccc2c1OCCO2` (as salt: oxalate) came in with a melting point of 198 to 200 °C. In turn, `O[C@H](COc1ccccc1C1CCCC1)CN1CCC2(CC1)OCc1c2ccc2c1OCCCO2` (as salt: oxalate) yielded a melting point of 169 to 171 °C.
